Measured values from patent US5112594A, “Kit for preparing a technetium-99m myocardial imaging agent” (Mallinckrodt Medical, Inc., priority 1991, dated 1992).

Assay: Biodistribution Data of Selected Tc-99m(III) Complexes in Guinea Pigs
Format: in vivo
Settings: for Heart/Blood / Heart/Liver: ratio

Substance | % Heart uptake (5 min) [% Injected dose/Organ] | % Heart uptake (60 min) [% Injected dose/Organ] | Heart/Blood (5 min) | Heart/Liver (5 min) | Heart/Blood (60 min) | Heart/Liver (60 min)
trans-[1,2-bis[dihydro-2,2,5,5-tetramethyl-3(2H)furanone-4-methyleneamino]ethane]bis-[tris(2-(2-(1,3-dioxanyl))]ethylphosphine]technetium-99m(III) [Complex IV] | 0.8 | 0.9 | 5.4 | 1.2 | 58.6 | 3.0
trans-[1,2-bis[dihydro-2,2,5,5-tetramethyl-3(2H)furanone-4-methyleneamino]ethane]bis[tris(3-methoxypropyl)phosphine]technetium-99m(III) [Complex I] | 0.8 | 0.9 | 4.6 | 1.5 | 35.6 | 6.6
trans-[1,2-bis[dihydro-2,2,5,5-tetramethyl-3(2H)furanthione-4-methyleneamino]ethane]-bis[tris(3-methoxypropyl)phosphine]technetium-99m (III) [Complex III] | 1.1 | 1.0 | 5.9 | 0.9 | 3.5 | 1.5
trans-[1-[dihydro-2,2,5,5-tetramethyl-3(2H)furanthione-4-methyleneamino]-2-[dihydro-2,2,5,5-tetramethyl-3(2H)furanone-4-methyleneaminoethane]bis[tris(3-methoxypropyl)phosphine]technetium-99m(III) [Complex II] | 0.9 | 0.8 | 6.1 | 1.6 | 26.5 | 5.6
